Values quoted from earlier work as cited in publication PMC9851200, “Multiparameter phenotypic screening for endogenous TFEB and TFE3 translocation identifies novel chemical series modulating lysosome function” (Autophagy, 2022).

Key:
Parameters in all cases: method as in original PKIS2 published data
[1] = target: T1, kinases (KINOMEscan panel) (Homo sapiens, UniProt Q02156); details: kinase PRKCE; Published KINOMEscan; ref original PKIS2 published data; cited from earlier work
T1 sequence (Q02156 1-737): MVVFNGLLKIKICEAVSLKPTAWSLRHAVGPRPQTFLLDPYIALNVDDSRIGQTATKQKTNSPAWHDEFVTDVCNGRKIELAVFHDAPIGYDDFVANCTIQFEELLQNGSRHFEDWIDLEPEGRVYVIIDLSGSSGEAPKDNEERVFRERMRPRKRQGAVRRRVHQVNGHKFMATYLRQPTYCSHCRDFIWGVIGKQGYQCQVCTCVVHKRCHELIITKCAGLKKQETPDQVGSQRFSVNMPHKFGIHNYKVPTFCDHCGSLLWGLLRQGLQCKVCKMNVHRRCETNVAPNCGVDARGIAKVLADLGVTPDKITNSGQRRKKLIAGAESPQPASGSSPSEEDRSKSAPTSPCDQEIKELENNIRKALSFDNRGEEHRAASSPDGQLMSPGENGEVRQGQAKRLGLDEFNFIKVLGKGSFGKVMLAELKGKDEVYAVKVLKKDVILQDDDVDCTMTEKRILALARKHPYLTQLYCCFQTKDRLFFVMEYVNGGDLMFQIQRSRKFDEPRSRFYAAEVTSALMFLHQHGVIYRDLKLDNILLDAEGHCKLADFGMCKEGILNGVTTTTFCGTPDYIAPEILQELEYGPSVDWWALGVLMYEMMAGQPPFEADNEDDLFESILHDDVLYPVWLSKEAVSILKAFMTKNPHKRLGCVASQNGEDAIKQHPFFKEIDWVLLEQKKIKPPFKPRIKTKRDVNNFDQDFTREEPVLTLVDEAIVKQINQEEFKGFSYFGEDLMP

[2] = target: kinases (KINOMEscan panel) (Homo sapiens, UniProt Q86Y07); details: Published KINOMEscan; ref original PKIS2 published data; cited from earlier work
Chain of kinases (KINOMEscan panel) (Homo sapiens, UniProt Q86Y07) (Q86Y07 whole entry): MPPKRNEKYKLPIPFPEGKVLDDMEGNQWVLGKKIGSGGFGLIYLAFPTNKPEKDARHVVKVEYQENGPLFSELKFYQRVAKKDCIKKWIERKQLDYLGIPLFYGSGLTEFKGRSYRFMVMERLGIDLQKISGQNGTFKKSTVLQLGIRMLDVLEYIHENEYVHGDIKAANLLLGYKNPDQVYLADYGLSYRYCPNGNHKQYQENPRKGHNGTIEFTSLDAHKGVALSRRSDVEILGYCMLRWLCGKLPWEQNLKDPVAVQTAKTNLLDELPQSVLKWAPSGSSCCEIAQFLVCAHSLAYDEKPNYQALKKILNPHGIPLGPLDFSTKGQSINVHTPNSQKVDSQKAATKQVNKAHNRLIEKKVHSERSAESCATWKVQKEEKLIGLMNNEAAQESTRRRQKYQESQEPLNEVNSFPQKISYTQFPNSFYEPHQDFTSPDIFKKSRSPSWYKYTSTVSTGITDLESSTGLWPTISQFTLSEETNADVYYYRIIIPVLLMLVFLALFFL

[3] = target: T2, kinases (KINOMEscan panel) (Homo sapiens, UniProt P29322); details: kinase EPHA8; Published KINOMEscan; ref original PKIS2 published data; cited from earlier work
T2 sequence (P29322 28-1005): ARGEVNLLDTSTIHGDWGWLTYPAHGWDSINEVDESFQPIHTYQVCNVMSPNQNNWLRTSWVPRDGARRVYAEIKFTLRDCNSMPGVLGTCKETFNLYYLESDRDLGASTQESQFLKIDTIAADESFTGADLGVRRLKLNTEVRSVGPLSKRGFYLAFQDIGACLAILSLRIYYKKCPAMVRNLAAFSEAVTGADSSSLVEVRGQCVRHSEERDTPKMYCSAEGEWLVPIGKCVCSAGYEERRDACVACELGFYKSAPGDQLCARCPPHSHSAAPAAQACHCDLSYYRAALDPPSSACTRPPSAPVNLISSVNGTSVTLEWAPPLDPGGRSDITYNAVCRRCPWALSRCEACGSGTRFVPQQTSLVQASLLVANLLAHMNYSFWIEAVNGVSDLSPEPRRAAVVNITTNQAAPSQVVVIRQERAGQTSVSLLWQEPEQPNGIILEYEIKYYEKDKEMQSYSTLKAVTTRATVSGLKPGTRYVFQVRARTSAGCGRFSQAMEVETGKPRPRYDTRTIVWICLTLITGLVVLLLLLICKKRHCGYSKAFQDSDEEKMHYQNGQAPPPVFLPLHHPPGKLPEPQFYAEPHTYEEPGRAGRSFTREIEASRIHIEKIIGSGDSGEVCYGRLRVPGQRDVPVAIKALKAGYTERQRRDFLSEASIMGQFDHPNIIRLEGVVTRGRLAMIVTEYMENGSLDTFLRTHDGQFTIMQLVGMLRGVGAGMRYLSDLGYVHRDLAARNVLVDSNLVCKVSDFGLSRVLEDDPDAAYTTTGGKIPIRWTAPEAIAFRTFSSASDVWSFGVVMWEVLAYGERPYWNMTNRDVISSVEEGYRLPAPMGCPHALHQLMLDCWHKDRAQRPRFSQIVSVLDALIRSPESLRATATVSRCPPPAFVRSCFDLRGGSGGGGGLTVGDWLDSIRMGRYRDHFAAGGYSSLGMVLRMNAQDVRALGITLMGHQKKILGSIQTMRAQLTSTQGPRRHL

[4] = target: kinases (KINOMEscan panel) (Homo sapiens, UniProt Q9UIK4); details: kinase DAPK2; Published KINOMEscan; ref original PKIS2 published data; cited from earlier work
Chain of kinases (KINOMEscan panel) (Homo sapiens, UniProt Q9UIK4) (Q9UIK4 whole entry): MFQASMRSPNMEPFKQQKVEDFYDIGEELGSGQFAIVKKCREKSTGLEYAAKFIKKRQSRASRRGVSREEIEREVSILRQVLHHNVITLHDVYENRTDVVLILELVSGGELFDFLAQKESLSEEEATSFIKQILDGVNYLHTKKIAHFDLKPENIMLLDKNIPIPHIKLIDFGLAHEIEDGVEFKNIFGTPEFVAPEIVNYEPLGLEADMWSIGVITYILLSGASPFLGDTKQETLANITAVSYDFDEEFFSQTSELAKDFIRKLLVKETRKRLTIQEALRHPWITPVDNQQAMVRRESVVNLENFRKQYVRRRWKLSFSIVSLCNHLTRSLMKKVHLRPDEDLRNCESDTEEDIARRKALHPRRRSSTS

[5] = target: kinases (KINOMEscan panel) (Homo sapiens, UniProt P00519); details: Published KINOMEscan, ref original PKIS2 published data, cited from earlier work
Chain of kinases (KINOMEscan panel) (Homo sapiens, UniProt P00519) (P00519 whole entry): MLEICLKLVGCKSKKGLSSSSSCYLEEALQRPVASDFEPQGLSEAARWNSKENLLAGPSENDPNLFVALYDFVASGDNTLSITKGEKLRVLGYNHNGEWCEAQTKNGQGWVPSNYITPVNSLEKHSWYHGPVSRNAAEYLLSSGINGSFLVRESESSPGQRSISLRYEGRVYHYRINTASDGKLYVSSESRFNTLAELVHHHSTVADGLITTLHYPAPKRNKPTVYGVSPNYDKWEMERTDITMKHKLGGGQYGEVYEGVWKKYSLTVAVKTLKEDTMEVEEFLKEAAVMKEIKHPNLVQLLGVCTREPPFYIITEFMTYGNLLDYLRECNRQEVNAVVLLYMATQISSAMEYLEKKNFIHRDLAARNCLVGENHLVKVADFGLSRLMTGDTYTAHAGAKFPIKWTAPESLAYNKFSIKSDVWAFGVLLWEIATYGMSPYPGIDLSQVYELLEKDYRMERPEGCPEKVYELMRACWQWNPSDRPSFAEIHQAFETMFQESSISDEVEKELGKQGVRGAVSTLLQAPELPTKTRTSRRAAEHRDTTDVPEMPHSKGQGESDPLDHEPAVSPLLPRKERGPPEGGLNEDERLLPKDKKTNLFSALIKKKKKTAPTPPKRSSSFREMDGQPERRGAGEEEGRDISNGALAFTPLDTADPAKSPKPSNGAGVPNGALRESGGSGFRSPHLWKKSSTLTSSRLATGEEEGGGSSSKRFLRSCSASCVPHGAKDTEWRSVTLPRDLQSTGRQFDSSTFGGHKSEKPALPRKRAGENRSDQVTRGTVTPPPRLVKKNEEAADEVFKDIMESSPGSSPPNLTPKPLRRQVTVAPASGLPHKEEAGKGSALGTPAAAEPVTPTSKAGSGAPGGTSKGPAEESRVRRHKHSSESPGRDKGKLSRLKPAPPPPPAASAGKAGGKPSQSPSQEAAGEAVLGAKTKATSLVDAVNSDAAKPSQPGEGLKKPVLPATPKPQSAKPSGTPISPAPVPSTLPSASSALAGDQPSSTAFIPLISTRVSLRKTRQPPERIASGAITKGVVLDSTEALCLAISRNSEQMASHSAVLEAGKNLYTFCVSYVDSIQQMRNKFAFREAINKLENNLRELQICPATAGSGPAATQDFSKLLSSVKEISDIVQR

[6] = target: kinases (KINOMEscan panel) (Homo sapiens, UniProt P36894); details: kinase BMPR1A; Published KINOMEscan; ref original PKIS2 published data; cited from earlier work
Chain of kinases (KINOMEscan panel) (Homo sapiens, UniProt P36894) (P36894 24-532): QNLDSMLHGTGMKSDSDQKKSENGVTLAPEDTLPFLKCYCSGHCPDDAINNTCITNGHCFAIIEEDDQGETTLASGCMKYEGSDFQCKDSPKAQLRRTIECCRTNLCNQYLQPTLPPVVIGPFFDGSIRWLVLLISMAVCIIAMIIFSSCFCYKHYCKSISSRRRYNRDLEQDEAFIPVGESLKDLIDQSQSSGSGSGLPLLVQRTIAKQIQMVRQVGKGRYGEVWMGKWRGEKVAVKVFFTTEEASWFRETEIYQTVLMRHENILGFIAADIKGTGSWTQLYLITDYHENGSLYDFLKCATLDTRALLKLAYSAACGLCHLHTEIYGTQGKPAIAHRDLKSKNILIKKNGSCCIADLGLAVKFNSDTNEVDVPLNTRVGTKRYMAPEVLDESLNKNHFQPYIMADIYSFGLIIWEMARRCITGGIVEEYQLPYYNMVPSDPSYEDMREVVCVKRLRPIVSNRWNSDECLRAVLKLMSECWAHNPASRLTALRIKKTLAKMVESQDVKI

[7] = target: T3, kinases (KINOMEscan panel) (Homo sapiens, UniProt Q13976); details: kinase PRKG1; Published KINOMEscan; ref original PKIS2 published data; cited from earlier work
T3 sequence (Q13976 1-671): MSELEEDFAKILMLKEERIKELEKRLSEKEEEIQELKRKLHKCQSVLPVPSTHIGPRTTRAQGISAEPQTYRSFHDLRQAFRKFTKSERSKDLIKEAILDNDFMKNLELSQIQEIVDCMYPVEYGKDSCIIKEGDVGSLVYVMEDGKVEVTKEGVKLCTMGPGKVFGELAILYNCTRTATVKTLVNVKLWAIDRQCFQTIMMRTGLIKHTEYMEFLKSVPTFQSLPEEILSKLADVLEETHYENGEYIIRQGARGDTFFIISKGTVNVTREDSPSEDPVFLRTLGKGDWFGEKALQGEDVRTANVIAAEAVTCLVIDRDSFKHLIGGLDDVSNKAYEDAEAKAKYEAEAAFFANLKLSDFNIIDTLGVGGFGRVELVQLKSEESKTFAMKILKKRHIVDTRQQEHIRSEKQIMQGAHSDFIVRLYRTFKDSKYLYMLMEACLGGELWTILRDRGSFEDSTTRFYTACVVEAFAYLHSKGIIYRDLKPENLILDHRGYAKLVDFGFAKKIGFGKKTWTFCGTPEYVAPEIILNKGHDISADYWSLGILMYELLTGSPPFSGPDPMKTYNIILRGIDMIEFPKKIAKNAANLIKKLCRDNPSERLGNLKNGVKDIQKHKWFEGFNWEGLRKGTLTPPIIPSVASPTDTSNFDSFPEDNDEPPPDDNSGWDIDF

SMILES: Cc1cccc(-c2nc(Nc3ccncc3)c3ccccc3n2)n1 [NK215]
- KINOMEscan PRKCE [1]: 0
- KINOMEscan VRK2 [2]: 0
- KINOMEscan EPHA8 [3]: 7
- KINOMEscan DAPK2 [4]: 7
- KINOMEscan ABL1-nonphosphorylated ([5]; ABL1-nonphosphorylated): 39
- KINOMEscan ABL1-phosphorylated ([5]; ABL1-phosphorylated): 28
- KINOMEscan BMPR1A [6]: 0
- KINOMEscan PRKG1 [7]: 7
